Experimental data published in patent US8815872B2, “Macrocyclics pyrimidines as aurora kinase inhibitors” (Merck Patent GmbH, priority 2008, dated 2014).

How the values were obtained:
Assay type in all cases: biochemical
Syk = target: T1, Syk (Homo sapiens, UniProt P43405); assay: Other kinases, inhibition at 1 μM (Table 3)
T1 construct: purchased Caliper Life Sciences
Experimental: (§1) The Aurora and other kinase assays described here were performed on two Caliper Life Sciences systems, the LC3000 and the Desktop Profiler. These provide data on enzyme activity via measurement of the relative amounts of phosphorylated or unphosphorylated fluorescently labelled substrate peptide at the end of an enzymatic reaction. These different states of peptide are resolved by applying a potential difference across the sample. The presence of a charged phosphate group on the product (as opposed to the substrate) causes a different peptide mobility between the two peptides. This is visualized by excitation of a fluorescent label on the substrate and product peptides and represented as peaks within the analysis software.
(§2) The Desktop Profiler utilizes the same principal as the LC 3000 for calculating percentage conversion of a substrate to product. Caliper Life Sciences provided proprietary flash frozen pre-made 384 well plates containing selected kinases. Each column in the 384 well plate contained a particular selected kinase. A second plate, the ‘substrate plate’ contained a mix of fluorescently labeled peptide substrate and ATP. These were arranged in columns so that transfer for substrate plate to enzyme plate provided the correct enzyme with the correct substrate/ATP concentration.
(§3) Compounds were added to a thawed enzyme plate in the desired format, in single concentrations. Reactions were initiated by transfer of the ubstrate/ATP mix from the substrate plate. The enzyme plate was incubated for 90 mins at 25 °C. The reaction was stopped by addition of […] of Stop Buffer (100 mM HEPES pH 7.5, 0.015% Brij-35, 10 mM EDTA (Sigma, E7889)).
(§4) Plates were read in a manner identical to that of the LC3000, and the ratio between substrate and product peaks provided the activity of the enzyme in that well. This was best represented by a plate heat map which colors each well by percent inhibition as compared to positive and negative controls (no inhibitors and no ATP respectively).

VEGFR = assay: Other kinases, inhibition at 1 μM (Table 3)
Experimental: as §1, §2, §3, §4

DYRK3 = target: T2, DYRK3 (Homo sapiens, UniProt O43781); assay: Other kinases, inhibition at 1 μM (Table 3)
T2 construct: purchased Caliper Life Sciences
Experimental: as §1, §2, §3, §4

MKK1 = target: T3, MKK1 (Homo sapiens, UniProt Q02750); assay: Other kinases, inhibition at 1 μM (Table 3)
T3 construct: purchased Caliper Life Sciences
T3 sequence (Q02750 whole entry, species assumed): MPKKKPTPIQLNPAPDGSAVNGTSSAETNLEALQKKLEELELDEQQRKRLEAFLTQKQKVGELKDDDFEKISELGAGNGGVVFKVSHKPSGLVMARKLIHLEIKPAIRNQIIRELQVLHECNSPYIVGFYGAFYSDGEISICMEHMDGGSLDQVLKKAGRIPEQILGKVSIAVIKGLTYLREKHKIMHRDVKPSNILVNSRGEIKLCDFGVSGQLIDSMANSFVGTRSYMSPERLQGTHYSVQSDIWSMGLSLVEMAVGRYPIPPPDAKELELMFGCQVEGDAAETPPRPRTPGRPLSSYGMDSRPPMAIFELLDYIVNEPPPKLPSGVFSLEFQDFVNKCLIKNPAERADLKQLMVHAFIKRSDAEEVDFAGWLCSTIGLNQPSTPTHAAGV
Experimental: as §1, §2, §3, §4

PRK2 = target: T4, PRK2 (Homo sapiens, UniProt Q16513); assay: Other kinases, inhibition at 1 μM (Table 3)
T4 construct: purchased Caliper Life Sciences
T4 sequence (Q16513 whole entry, species assumed): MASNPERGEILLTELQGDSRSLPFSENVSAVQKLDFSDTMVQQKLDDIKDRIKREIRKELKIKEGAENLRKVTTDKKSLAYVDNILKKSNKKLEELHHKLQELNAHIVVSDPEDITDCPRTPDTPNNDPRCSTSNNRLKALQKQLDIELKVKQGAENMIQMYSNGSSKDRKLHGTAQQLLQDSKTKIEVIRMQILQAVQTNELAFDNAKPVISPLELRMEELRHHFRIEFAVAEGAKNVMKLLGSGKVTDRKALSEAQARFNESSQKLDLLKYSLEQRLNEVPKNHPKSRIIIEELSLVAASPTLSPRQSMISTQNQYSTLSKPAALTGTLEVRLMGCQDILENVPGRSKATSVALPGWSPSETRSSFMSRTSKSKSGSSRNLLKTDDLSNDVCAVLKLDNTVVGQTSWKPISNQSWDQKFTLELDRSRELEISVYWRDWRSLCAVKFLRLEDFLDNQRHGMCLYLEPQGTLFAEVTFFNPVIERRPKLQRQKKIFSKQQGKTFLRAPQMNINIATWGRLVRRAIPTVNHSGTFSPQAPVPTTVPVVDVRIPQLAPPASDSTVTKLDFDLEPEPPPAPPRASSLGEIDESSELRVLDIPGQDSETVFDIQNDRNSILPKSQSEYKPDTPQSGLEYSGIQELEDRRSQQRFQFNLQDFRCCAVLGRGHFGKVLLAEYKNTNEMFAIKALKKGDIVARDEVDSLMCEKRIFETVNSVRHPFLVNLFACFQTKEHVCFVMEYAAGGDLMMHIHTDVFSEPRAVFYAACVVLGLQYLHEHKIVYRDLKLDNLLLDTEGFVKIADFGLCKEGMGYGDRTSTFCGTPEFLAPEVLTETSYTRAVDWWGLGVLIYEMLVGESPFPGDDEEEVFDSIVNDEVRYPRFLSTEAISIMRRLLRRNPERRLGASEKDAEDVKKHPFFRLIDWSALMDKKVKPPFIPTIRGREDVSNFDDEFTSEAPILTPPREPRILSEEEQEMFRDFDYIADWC
Experimental: as §1, §2, §3, §4

FGFR1 = target: T5, FGFR1 (Homo sapiens, UniProt P11362); assay: Other kinases, inhibition at 1 μM (Table 3)
T5 construct: purchased Caliper Life Sciences
Experimental: as §1, §2, §3, §4

EphB2(h) = target: T6, EphB2(h) (Homo sapiens, UniProt P29323); assay: Other kinases, single-concentration inhibition (Table 3)
T6 construct: purchased Caliper Life Sciences
T6 sequence (P29323 19-1055): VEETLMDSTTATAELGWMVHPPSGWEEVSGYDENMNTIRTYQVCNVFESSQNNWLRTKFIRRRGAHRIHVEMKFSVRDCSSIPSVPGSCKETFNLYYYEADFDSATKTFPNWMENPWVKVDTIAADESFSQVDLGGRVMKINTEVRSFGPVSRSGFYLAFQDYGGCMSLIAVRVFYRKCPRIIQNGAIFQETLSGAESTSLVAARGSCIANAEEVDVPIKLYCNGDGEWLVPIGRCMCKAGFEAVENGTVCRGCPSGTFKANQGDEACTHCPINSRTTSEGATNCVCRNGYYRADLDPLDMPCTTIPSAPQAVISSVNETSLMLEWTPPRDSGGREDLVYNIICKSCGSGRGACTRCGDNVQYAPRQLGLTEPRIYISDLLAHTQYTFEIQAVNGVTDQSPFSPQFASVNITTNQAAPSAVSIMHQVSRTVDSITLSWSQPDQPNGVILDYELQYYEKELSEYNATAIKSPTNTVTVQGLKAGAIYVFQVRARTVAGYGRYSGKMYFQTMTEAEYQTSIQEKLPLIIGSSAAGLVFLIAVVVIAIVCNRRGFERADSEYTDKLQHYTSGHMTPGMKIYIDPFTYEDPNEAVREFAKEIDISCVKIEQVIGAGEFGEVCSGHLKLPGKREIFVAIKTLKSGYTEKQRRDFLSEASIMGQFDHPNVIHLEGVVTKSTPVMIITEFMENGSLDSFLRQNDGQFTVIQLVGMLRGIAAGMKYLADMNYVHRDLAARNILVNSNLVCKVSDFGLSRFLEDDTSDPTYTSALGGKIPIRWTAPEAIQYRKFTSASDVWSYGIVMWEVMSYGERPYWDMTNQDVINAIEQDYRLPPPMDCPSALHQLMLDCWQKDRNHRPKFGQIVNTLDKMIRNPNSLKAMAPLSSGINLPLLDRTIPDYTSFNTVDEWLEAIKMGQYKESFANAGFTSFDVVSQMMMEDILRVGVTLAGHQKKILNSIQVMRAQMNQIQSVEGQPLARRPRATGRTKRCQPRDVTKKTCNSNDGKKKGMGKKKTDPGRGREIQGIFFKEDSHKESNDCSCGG
How it was run: (§5)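 Single-concentration compound tested on pre-made kinase plates with fluorescent peptide substrate/ATP; reaction 90 min at 25 °C, stopped with EDTA. Substrate/product separated by mobility shift (Caliper); percent inhibition vs no-inhibitor and no-ATP controls.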

FAK(h) = target: T7, FAK(h) (Homo sapiens, UniProt Q05397); assay: as above
T7 construct: purchased Caliper Life Sciences
T7 sequence (Q05397 whole entry): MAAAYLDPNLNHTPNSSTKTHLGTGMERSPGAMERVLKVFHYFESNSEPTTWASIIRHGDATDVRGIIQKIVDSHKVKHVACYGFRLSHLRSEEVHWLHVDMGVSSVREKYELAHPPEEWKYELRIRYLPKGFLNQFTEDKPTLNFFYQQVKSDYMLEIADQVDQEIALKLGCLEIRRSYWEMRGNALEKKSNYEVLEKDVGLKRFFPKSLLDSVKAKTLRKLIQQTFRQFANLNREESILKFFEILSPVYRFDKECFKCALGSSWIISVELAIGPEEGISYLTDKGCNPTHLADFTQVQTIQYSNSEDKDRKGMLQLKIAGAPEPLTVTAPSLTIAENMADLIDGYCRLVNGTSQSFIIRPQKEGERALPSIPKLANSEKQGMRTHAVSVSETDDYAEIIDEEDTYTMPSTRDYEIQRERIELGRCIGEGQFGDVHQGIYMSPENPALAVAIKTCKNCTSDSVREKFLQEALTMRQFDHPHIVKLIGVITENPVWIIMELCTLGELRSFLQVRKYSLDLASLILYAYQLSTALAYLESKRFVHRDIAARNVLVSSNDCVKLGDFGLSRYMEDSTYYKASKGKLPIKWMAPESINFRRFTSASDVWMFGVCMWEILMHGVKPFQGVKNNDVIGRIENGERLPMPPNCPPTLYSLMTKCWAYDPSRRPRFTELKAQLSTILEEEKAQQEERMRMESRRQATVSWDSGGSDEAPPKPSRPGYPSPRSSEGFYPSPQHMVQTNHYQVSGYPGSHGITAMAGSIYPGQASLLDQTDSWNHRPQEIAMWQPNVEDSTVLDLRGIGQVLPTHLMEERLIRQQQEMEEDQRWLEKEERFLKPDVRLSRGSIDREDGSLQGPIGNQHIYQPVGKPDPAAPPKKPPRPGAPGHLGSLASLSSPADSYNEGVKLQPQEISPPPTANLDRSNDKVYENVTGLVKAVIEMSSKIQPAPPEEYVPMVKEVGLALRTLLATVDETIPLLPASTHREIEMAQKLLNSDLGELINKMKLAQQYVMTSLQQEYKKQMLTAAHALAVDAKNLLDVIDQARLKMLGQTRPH
How it was run: as §5

PDK1(h) = target: T8, PDK1(h) (Homo sapiens, UniProt O15530); assay: as above
T8 construct: purchased Caliper Life Sciences
T8 sequence (O15530 1-556): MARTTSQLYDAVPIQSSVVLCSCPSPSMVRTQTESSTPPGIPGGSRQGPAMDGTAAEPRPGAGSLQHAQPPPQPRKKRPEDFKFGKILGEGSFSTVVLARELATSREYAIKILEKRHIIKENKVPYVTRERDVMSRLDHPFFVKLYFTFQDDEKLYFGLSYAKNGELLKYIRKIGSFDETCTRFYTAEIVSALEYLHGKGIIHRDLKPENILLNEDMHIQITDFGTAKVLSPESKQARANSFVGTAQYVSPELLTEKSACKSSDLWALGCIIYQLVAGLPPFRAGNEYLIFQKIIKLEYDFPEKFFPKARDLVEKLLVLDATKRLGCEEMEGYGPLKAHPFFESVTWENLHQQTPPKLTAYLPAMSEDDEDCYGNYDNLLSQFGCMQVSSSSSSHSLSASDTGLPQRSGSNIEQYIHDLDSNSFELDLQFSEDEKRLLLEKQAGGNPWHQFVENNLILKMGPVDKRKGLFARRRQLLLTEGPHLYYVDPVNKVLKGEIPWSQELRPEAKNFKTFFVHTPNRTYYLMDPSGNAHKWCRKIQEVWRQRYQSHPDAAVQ
How it was run: as §5

CDK2/cyclinE(h) = target: T9, CDK2/cyclinE(h) (Homo sapiens, UniProt P24941); assay: as above
T9 construct: purchased Caliper Life Sciences
How it was run: as §5

TrkB(h) = target: T10, TrkB(h) (Homo sapiens, UniProt Q16620); assay: as above
T10 construct: purchased Caliper Life Sciences
T10 sequence (Q16620 32-822): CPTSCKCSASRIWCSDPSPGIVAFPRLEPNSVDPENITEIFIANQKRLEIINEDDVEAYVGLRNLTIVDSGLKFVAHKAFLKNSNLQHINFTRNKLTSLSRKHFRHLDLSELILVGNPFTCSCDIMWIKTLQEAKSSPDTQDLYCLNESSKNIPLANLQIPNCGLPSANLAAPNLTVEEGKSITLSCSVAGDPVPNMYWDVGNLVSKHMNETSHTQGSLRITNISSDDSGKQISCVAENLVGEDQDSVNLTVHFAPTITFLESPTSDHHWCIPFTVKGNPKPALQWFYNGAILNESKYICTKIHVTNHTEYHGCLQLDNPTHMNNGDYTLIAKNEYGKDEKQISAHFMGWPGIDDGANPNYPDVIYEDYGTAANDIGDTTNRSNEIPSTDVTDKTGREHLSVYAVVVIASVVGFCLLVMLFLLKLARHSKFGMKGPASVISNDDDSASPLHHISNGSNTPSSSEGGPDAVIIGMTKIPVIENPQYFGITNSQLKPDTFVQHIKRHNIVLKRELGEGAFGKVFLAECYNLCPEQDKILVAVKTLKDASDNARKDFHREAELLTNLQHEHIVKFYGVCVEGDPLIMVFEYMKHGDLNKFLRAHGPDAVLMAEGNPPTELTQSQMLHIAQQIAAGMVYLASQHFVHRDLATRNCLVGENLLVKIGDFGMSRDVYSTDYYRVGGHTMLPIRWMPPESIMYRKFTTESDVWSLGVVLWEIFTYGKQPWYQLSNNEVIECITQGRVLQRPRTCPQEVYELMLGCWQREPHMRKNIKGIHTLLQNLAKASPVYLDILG
How it was run: as §5

Tie2(h) = target: T11, Tie2(h) (Homo sapiens, UniProt Q02763); assay: as above
T11 construct: purchased Caliper Life Sciences
T11 sequence (Q02763 23-1124): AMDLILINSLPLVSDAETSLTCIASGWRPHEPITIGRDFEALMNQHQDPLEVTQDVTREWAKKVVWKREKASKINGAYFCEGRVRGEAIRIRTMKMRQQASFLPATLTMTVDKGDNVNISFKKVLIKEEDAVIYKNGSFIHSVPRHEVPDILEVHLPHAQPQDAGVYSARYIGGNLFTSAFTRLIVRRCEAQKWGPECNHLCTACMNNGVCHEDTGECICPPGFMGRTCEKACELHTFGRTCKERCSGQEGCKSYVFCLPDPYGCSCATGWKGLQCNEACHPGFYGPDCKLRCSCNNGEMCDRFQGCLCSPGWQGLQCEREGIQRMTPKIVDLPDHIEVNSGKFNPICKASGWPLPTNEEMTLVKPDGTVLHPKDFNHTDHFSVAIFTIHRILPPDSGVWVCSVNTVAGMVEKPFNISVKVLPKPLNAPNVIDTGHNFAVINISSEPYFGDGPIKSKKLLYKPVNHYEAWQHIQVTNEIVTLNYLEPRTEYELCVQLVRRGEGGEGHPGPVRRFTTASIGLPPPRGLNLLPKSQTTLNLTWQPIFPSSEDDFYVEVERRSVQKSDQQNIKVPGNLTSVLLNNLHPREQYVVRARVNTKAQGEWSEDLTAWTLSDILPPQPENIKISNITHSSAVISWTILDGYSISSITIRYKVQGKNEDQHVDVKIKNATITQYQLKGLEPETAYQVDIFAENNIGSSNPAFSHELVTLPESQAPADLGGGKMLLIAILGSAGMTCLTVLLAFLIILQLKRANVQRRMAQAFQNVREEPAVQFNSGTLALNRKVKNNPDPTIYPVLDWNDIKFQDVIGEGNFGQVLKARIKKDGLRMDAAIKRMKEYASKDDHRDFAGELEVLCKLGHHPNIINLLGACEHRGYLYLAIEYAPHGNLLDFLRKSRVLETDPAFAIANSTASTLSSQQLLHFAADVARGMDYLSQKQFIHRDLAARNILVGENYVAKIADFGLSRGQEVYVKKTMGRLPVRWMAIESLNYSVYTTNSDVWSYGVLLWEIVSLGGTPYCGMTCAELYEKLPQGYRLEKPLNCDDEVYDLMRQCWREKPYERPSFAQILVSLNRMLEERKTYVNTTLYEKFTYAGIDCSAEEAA
How it was run: as §5

MSK2(h) = target: T12, MSK2(h) (Homo sapiens, UniProt O75676); assay: as above
T12 construct: purchased Caliper Life Sciences
T12 sequence (O75676 whole entry): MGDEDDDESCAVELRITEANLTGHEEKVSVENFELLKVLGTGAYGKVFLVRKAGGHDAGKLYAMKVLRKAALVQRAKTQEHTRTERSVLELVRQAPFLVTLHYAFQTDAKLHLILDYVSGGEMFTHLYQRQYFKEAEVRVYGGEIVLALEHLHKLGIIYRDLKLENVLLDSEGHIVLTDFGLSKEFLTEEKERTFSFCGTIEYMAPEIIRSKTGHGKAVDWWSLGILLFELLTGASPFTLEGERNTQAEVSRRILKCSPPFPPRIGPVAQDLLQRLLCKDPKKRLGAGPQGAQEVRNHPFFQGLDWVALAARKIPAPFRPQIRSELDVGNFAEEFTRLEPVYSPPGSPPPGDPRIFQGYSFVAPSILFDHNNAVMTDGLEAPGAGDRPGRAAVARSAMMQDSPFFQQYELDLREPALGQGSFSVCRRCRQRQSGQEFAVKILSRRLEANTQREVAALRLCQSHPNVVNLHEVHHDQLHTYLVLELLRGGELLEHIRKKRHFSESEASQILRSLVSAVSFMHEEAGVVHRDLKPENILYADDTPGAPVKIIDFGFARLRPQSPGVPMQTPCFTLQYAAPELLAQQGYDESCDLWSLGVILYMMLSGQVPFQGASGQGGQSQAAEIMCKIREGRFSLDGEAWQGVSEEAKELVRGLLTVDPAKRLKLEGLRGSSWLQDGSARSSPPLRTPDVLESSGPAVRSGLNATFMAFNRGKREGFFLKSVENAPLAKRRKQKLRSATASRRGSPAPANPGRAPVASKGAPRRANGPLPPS
How it was run: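 Each kinase was preincubated with a single compound concentration, and the reaction was then initiated with a labelled peptide substrate/ATP mix. After 90 min at 25 °C, reactions were quenched with EDTA and conversion was read by mobility shift.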

Row | Structure (SMILES) | % inhibition EphB2(h) (EphB2(h); 1 μM) [%] | % inhibition FAK(h) (FAK(h); 1 μM) [%] | % inhibition PDK1(h) (PDK1(h); 1 μM) [%] | % inhibition CDK2/cyclinE(h) (CDK2/cyclinE(h); 1 μM) [%] | % inhibition TrkB(h) (TrkB(h); 1 μM) [%] | % inhibition Tie2(h) (Tie2(h); 1 μM) [%] | % inhibition MSK2(h) (MSK2(h); 1 μM) [%] | further results
1 | Fc1cnc2nc1NC1CCCC(C1)OC/C=C\COc1cccc(c1)N2 (single isomer, unassigned) [Example 33, (16Z)-6-fluoro-14,19-dioxa-2,4,8,26-tetraazatetracyclo[18.3.1.1˜3,7˜0.1˜9,13˜]hexacosa-1(24),3(26),4,6,16,20,22-heptaene] |  |  |  |  |  |  |  | inhibition at 1 µM (Syk): 84%; % inhibition VEGFR (VEGFR): 49%; inhibition at 1 µM (DYRK3): 99%; % inhibition MKK1 (MKK1): 71%; inhibition at 1 µM (PRK2): 97%; inhibition at 1 µM (FGFR1): 74%
2 | NC(=O)[C@H]1[C@H]2C[C@H]3[C@H]1Nc1nc(ncc1F)Nc1cccc(c1)C(=O)CS[C@@H]3C2 [Example 11] | 115 | 77 | 98 | 92 | 32 | 91 | 89 | 
3 | N#Cc1ccc2cc1NC(=O)CS[C@@H]1C[C@@H]3C[C@H]1[C@@H](Nc1nc(ncc1F)N2)[C@H]3C(N)=O [Example 26] | 112 | 35 | 88 | 15 | 3 | 44 | 2 | 
4 | CC[C@@H]1C[C@@H]2/C=C\COc3cccc(c3)Nc3ncc(F)c(n3)N[C@H]2[C@H]1C(N)=O (single isomer, unassigned) [Example 6] | 80 | 81 | 90 | 107 | 90 | 119 | 60 | 
5 | CN1CCN(c2ccc3cc2NC(=O)CS[C@@H]2C[C@@H]4C[C@H]2[C@@H](Nc2nc(ncc2F)N3)[C@H]4C(N)=O)CC1 [Example 24] | 17 | 30 | 108 | 100 | 1 | 8 | 81 | 
6 | O=C(O)[C@H]1[C@H]2C[C@H]3[C@H]1Nc1nc(ncc1F)Nc1cccc(c1)OCCS[C@@H]3C2 [Example 21] |  |  |  |  |  |  |  | % inhibition EphB2(h) (EphB2(h); 10 μM): 8%; % inhibition FAK(h) (FAK(h); 10 μM): 7%; % inhibition PDK1(h) (PDK1(h); 10 μM): 78%; % inhibition CDK2/cyclinE(h) (CDK2/cyclinE(h); 10 μM): 89%; % inhibition TrkB(h) (TrkB(h); 10 μM): 18%; % inhibition Tie2(h) (Tie2(h); 10 μM): 33%; % inhibition MSK2(h) (MSK2(h); 10 μM): 75%
7 | CN1CCN(c2ccc3cc2OCCS[C@@H]2C[C@@H]4C[C@H]2[C@@H](Nc2nc(ncc2F)N3)[C@H]4C(N)=O)CC1 [Example 22] | 16 | 30 | 112 | 133 | 14 | 46 | 60 | 
8 | NC(=O)[C@H]1[C@H]2C[C@H]3[C@H]1Nc1nc(ncc1F)Nc1cccc(c1)NC(=O)CS[C@@H]3C2 [Example 27] | 67 | 41 | 86 | 60 | 5 | 2 | 65 | 
9 | C=C[C@@H]1C[C@@H]2/C=C/COc3cccc(c3)Nc3ncc(F)c(n3)N[C@H]2[C@H]1C(N)=O (single isomer, unassigned) [Example 3] | 94 | 86 | 102 | 114 | 83 | 99 | 136 | 
10 | CC[C@@H]1C[C@@H]2CCCOc3cccc(c3)Nc3ncc(F)c(n3)N[C@H]2[C@H]1C(N)=O (single isomer, unassigned) [Example 5] | 94 | 91 | 92 | 109 | 85 | 104 | 56 | 
11 | NC(=O)[C@H]1[C@H]2C[C@H]3[C@H]1Nc1nc(ncc1F)Nc1cccc(c1)OCCS[C@@H]3C2 [Example 20] | 27 | 11 | 80 | 69 | 5 | 8 | 48 | 
